What all share (assay type): biochemical
In one assay the target is PIM-1 (Homo sapiens, UniProt P11309). Briefly: Enzyme PIM-1 Assay ([33P]ATP incorporation into PIM2tide, filter plate). To be noted: averaged IC50; 35 μM ATP, 7.5 μM PIM2tide, 0.25 nM PIM-1, 60 min at 22° C. The method in brief: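 Ten-point, 3-fold dilution series (10 μM top, 2% DMSO final) tested for inhibition of 33P transfer from 35 μM ATP to 7.5 μM PIM2tide by 0.25 nM PIM-1. Reaction 60 min, 22 °C, pH 7.4 MOPS/MgCl2 buffer; phosphocellulose capture, scintillation counting, IC50 where fitted POC equals 50.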
Sequence of PIM-1 (P11309 whole entry, species assumed): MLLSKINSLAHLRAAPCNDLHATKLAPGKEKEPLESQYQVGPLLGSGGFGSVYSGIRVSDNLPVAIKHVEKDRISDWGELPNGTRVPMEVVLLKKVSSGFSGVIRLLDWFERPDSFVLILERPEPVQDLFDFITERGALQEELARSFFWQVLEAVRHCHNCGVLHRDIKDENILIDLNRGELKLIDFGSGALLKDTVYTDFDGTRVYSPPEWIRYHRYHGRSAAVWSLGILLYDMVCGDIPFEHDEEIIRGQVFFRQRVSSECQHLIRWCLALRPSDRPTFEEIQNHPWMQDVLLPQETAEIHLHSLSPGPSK

The target in a further assay is recombinant rat PIM-3 (Rattus norvegicus, UniProt O70444). The experiment in a line: PIM-3 Assay (as Example A). To be noted: averaged IC50; 30 μM ATP, 3.75 μM PIM2tide, 0.5 nM PIM-3. The method, boiled down: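 33P incorporation from 30 μM [γ-33P]ATP into 3.75 μM PIM2tide by 0.5 nM rat PIM-3, 60 min at 22 °C in pH 7.4 MOPS buffer, read by P81 filter capture and scintillation counting. Compounds tested in 3-fold dilutions up to 10 μM final, 2% DMSO; percent-of-control data fitted by 4-parameter logistic for IC50.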

Assay [1] deals with T1, GST-tagged recombinant full-length human Pim-2 (Homo sapiens, UniProt Q9P1W9).
T1 construct: GST-tagged recombinant full-length human Pim-2; GST
T1 sequence (Q9P1W9 whole entry): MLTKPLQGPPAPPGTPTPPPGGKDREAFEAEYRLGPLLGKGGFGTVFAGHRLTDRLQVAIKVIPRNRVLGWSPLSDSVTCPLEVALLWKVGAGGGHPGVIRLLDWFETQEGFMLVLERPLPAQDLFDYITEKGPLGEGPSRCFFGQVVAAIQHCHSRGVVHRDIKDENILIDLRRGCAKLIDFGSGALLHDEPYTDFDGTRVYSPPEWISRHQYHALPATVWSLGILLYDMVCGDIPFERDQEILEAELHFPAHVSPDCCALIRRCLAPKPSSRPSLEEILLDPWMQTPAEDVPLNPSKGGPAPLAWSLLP
The experiment in a line: PIM-2 Assay (as Example A). To be noted: averaged IC50; 4 μM ATP, 1.0 μM PIM2tide, 1.5 nM Pim-2. The method, boiled down: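 IC50 was derived by 4-parameter logistic fitting of percent-of-control data over a 10-point, 3-fold series (highest 10 μM, 2% DMSO). Reactions held 1.5 nM GST-Pim-2 (full-length, human), 4 μM [γ-33P]ATP and 1.0 μM PIM2tide for 60 min at 22 °C, pH 7.4; 33P-peptide captured on P81 filters.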

Each structure is given as a SMILES string. Where a name gives a salt, the structure may show the parent alone. Where only a bound is given, the exact number is not on record here.

As a reminder, the IC50 is the concentration needed to halve the response being measured.

As for `CC(C)Oc1cccc2ccc(-c3nnc4ccc([C@@H](N5CC[C@H](NCCO)C5)C(F)(F)F)cn34)nc12` [Example 101, 2-((S)-1-((R)-2,2,2-trifluoro-1-(3-(8-isopropoxyquinolin-2-yl)-[1,2,4]triazolo[4,3-a]pyridin-6-yl)ethyl)pyrrolidin-3-ylamino)ethanol dihydrochloride], the IC50 stood at 150 pM on PIM-1, 800 pM on recombinant rat PIM-3 and 40000 pM in assay [1].

In the case of `CC(C)Oc1cc(F)cc2ccc(-c3nnc4ccc([C@@H](N5CC[C@H](NCCO)C5)C(F)(F)F)cn34)nc12` [Example 102, 2-((S)-1-((R)-2,2,2-trifluoro-1-(3-(6-fluoro-8-isopropoxyquinolin-2-yl)-[1,2,4]triazolo[4,3-a]pyridin-6-yl)ethyl)pyrrolidin-3-ylamino)ethanol dihydrochloride], the IC50 on PIM-1 is 190 pM; on recombinant rat PIM-3 it was 700 pM; in assay [1], 30000 pM.

Turning to `CC(C)Oc1cccc2ccc(-c3nnc4ccc([C@H](N5CC[C@@H](O)C5)C(F)(F)F)cn34)nc12` [Example 103, (R)-1-((S)-2,2,2-trifluoro-1-(3-(8-isopropoxyquinolin-2-yl)-[1,2,4]triazolo[4,3-a]pyridin-6-yl)ethyl)pyrrolidin-3-ol], the IC50 on PIM-1 is 100 pM; on recombinant rat PIM-3, 3100 pM; in assay [1], above 100000 pM.

In the case of `CC(C)(C)c1cccc2ccc(-c3nnc4ccc([C@H](N5CC[C@@H](O)C5)C(F)(F)F)cn34)nc12` [Example 104], the IC50 at PIM-1 was 170 pM; at recombinant rat PIM-3 it was 12000 pM; in assay [1], above 100000 pM.

For the compound `COCC(C)(C)c1cccc2ccc(-c3nnc4ccc([C@@H](N5CC[C@H](N)C5)C(F)(F)F)cn34)nc12` [Example 105, (S)-1-((R)-2,2,2-trifluoro-1-(3-(8-(1-methoxy-2-methylpropan-2-yl)quinolin-2-yl)-[1,2,4]triazolo[4,3-a]pyridin-6-yl)ethyl)pyrrolidin-3-amine dihydrochloride], the IC50 against PIM-1 amounted to 40 pM; at recombinant rat PIM-3, 700 pM; in assay [1], 13000 pM.

As for `CC(C)C(=O)Nc1ccc2ccc(-c3nnc4ccc([C@@H](N5CC[C@H](O)C5)C(F)(F)F)cn34)nc2c1` [Example 106, N-(2-(6-((R)-2,2,2-trifluoro-1-((S)-3-hydroxypyrrolidin-1-yl)ethyl)-[1,2,4]triazolo[4,3-a]pyridin-3-yl)quinolin-7-yl)isobutyramide], the figures for the IC50 (against PIM-1; on recombinant rat PIM-3; in assay [1]) were 1620 pM, 3400 pM and above 100000 pM, respectively.

As for `CC(C)(C)C(=O)Nc1ccc2ccc(-c3nnc4ccc([C@@H](N5CC[C@H](O)C5)C(F)(F)F)cn34)nc2c1` [Example 107, N-(2-(6-((R)-2,2,2-trifluoro-1-((S)-3-hydroxypyrrolidin-1-yl)ethyl)-[1,2,4]triazolo[4,3-a]pyridin-3-yl)quinolin-7-yl)pivalamide], the figures for the IC50 (against PIM-1; at recombinant rat PIM-3; in assay [1]) were 480 pM, 900 pM and above 100000 pM, respectively.

With `COCCOc1c(F)ccc2ccc(-c3nnc4ccc([C@@H](N5CC[C@H](N)C5)C(F)(F)F)cn34)nc12` [Example 108, (S)-1-((R)-2,2,2-trifluoro-1-(3-(7-fluoro-8-(2-methoxyethoxy)quinolin-2-yl)-[1,2,4]triazolo[4,3-a]pyridin-6-yl)ethyl)pyrrolidin-3-amine hydrochloride], the IC50 is 490 pM on PIM-1, 4700 pM at recombinant rat PIM-3 and above 100000 pM in assay [1].

Turning to `CC(C)Oc1c(F)ccc2ccc(-c3nnc4ccc([C@@H](N5CC[C@H](N)C5)C(F)(F)F)cn34)nc12` [Example 109, (S)-1-((R)-2,2,2-trifluoro-1-(3-(7-fluoro-8-isopropoxyquinolin-2-yl)-[1,2,4]triazolo[4,3-a]pyridin-6-yl)ethyl)pyrrolidin-3-amine hydrochloride], the IC50 against PIM-1 was 280 pM; on recombinant rat PIM-3, 5500 pM; in assay [1], above 100000 pM.

Consider `COCC(C)(COC)c1cccc2ccc(-c3nnc4ccc([C@@H](N5CC[C@H](N)C5)C(F)(F)F)cn34)nc12` [Example 110, (S)-1-((R)-1-(3-(8-(1,3-dimethoxy-2-methylpropan-2-yl)quinolin-2-yl)-[1,2,4]triazolo[4,3-a]pyridin-6-yl)-2,2,2-trifluoroethyl)pyrrolidin-3-amine dihydrochloride], for which the results for the 50% inhibitory concentration (IC50) (on PIM-1; on recombinant rat PIM-3; in assay [1]) were 190 pM, 1800 pM and 95000 pM, respectively.

Regarding `COCCc1cccc2ccc(-c3nnc4ccc([C@@H](N5CC[C@H](N)C5)C(F)(F)F)cn34)nc12` [Example 111, (S)-1-((R)-2,2,2-trifluoro-1-(3-(8-(2-methoxyethyl)quinolin-2-yl)-[1,2,4]triazolo[4,3-a]pyridin-6-yl)ethyl)pyrrolidin-3-amine dihydrochloride], the results for the IC50 (against PIM-1; on recombinant rat PIM-3; in assay [1]) were 70 pM, 1000 pM and 52000 pM, respectively.

On to `COCC1(c2cccc3ccc(-c4nnc5ccc([C@@H](N6CC[C@H](N)C6)C(F)(F)F)cn45)nc23)CC1` [Example 112, (S)-1-((R)-2,2,2-trifluoro-1-(3-(8-(1-(methoxymethyl)cyclopropyl)quinolin-2-yl)-[1,2,4]triazolo[4,3-a]pyridin-6-yl)ethyl)pyrrolidin-3-amine dihydrochloride], for which the figures for the IC50 (on PIM-1; on recombinant rat PIM-3; in assay [1]) were 120 pM, 1400 pM and 21000 pM, respectively.

Turning to `COc1cc2nc(-c3nnc4ccc([C@@H](N5CC[C@H](N)C5)C(F)(F)F)cn34)ccc2cc1F` [Example 113, (S)-1-((R)-2,2,2-trifluoro-1-(3-(6-fluoro-7-methoxyquinolin-2-yl)-[1,2,4]triazolo[4,3-a]pyridin-6-yl)ethyl)pyrrolidin-3-amine hydrochloride], the IC50 against PIM-1 was 50 pM; on recombinant rat PIM-3 it was 2300 pM; in assay [1], above 100000 pM.

Consider `N[C@H]1CCN([C@H](c2ccc3nnc(-c4ccc5cccc(C6(CO)CC6)c5n4)n3c2)C(F)(F)F)C1` [Example 114, (1-(2-(6-((R)-1-((S)-3-aminopyrrolidin-1-yl)-2,2,2-trifluoroethyl)-[1,2,4]triazolo[4,3-a]pyridin-3-yl)quinolin-8-yl)cyclopropyl)methanol dihydrochloride], for which the IC50 on PIM-1 came to 60 pM; at recombinant rat PIM-3 it was 300 pM; in assay [1] it was 5600 pM.

For `Cc1c(OC(C)C)ccc2ccc(-c3nnc4ccc([C@@H](N5CC[C@H](N)C5)C(F)(F)F)cn34)nc12` [Example 116, (S)-1-((R)-2,2,2-trifluoro-1-(3-(7-isopropoxy-8-methylquinolin-2-yl)-[1,2,4]triazolo[4,3-a]pyridin-6-yl)ethyl)pyrrolidin-3-amine hydrochloride], the IC50 was 240 pM against PIM-1, 1800 pM at recombinant rat PIM-3 and 76000 pM in assay [1].

On to `COCCOc1ccc2ccc(-c3nnc4ccc([C@@H](N5CC[C@H](N)C5)C(F)(F)F)cn34)nc2c1C` [Example 117, (S)-1-((R)-2,2,2-trifluoro-1-(3-(7-(2-methoxyethoxy)-8-methylquinolin-2-yl)-[1,2,4]triazolo[4,3-a]pyridin-6-yl)ethyl)pyrrolidin-3-amine hydrochloride], for which the figures for the IC50 (against PIM-1; on recombinant rat PIM-3; in assay [1]) were 210 pM, 400 pM and 210000 pM, respectively.

`COCC(C)Oc1cccc2ccc(-c3nnc4ccc([C@@H](N5CC[C@H](N)C5)C(F)(F)F)cn34)nc12` (stereo partly drawn) [Example 118, (3S)-1-((1R)-2,2,2-trifluoro-1-(3-(8-(1-methoxypropan-2-yloxy)quinolin-2-yl)-[1,2,4]triazolo[4,3-a]pyridin-6-yl)ethyl)pyrrolidin-3-amine hydrochloride]: the IC50 came out at 110 pM against PIM-1, 800 pM on recombinant rat PIM-3 and 72000 pM in assay [1].

Consider `CC(C)Oc1cc2nc(-c3nnc4ccc([C@@H](N5CC[C@H](N)C5)C(F)(F)F)cn34)ccc2cc1F` [Example 119, (S)-1-((R)-2,2,2-trifluoro-1-(3-(6-fluoro-7-isopropoxyquinolin-2-yl)-[1,2,4]triazolo[4,3-a]pyridin-6-yl)ethyl)pyrrolidin-3-amine hydrochloride], for which the IC50 against PIM-1 was determined as 210 pM; at recombinant rat PIM-3 it was 900 pM; in assay [1], 23000 pM.

For `COCCOc1cc2nc(-c3nnc4ccc([C@@H](N5CC[C@H](N)C5)C(F)(F)F)cn34)ccc2cc1F` [Example 120, (S)-1-((R)-2,2,2-trifluoro-1-(3-(6-fluoro-7-(2-methoxyethoxy)quinolin-2-yl)-[1,2,4]triazolo[4,3-a]pyridin-6-yl)ethyl)pyrrolidin-3-amine hydrochloride], the IC50 is 470 pM at PIM-1, 3000 pM at recombinant rat PIM-3 and above 100000 pM in assay [1].

For the compound `CC(C)(CO)c1cc(F)cc2ccc(-c3nnc4ccc([C@@H](N5CC[C@H](N)C5)C(F)(F)F)cn34)nc12` [Example 121, 2-(2-(6-((R)-1-((S)-3-aminopyrrolidin-1-yl)-2,2,2-trifluoroethyl)-[1,2,4]triazolo[4,3-a]pyridin-3-yl)-6-fluoroquinolin-8-yl)-2-methylpropan-1-ol dihydrochloride], the IC50 against PIM-1 is 130 pM; at recombinant rat PIM-3 it was 200 pM; in assay [1] it was 8700 pM.

The record behind these values is patent publication US8889704B2 (Array BioPharma Inc., priority 2011, dated 2014).
